Test results: US8410309B2, “Phenoxy carboxylic acid compounds and compositions for delivering active agents” (Emisphere Technologies, Inc., priority 1999, dated 2013)
Several values for one entry are separate records, joined by “and”; a condition that tells them apart may be missing. Identical values can stand only once. Marks after values point to notes of the source that are not given here.

What was measured:
[1] = Heparin oral/intracolonic delivery, clotting time by activated partial thromboplastin time (APTT); assay type: in vivo, Sprague-Dawley rats; conditions: rats, baseline about 20 seconds
Experimental: Oral gavage (PO) and/or intracolonic (IC) dosing solutions containing a delivery agent compound and heparin sodium USP were prepared in 25% aqueous propylene glycol. […] This dry mixture was dissolved in 25% v/v aqueous propylene glycol, vortexed, and placed in a sonicator (about 37° C.). The pH was adjusted to about 7 (6.5 to 8.5) with aqueous NaOH (2N). The dosing solution was sonicated to produce a clear solution. The final volume was adjusted to about 3.0 ml.
(§1) The typical dosing and sampling protocols were as follows. […] The dosing solution was expressed slowly into the colon by pressing the syringe plunger.
Citrated blood samples were collected by cardiac puncture following the administration of ketamine (88 mg/kg), typically at 0.25, 0.5, 1.0 and 1.5 hours after dosing. Heparin absorption was verified by an increase in clotting time measured by the activated partial thromboplastin time (APTT) according to the method of Henry, J. B., Clinical Diagnosis and Management by Laboratory Methods, Philadelphia, Pa., W.B. Saunders (1979). Previous studies indicated baseline values of about 20 seconds.

[2] = Low molecular weight heparin (LMWH) oral/intracolonic delivery, plasma LMWH by anti-Factor Xa assay; assay type: in vivo, Sprague-Dawley rats; conditions: IC, rats, delivery agent compound 50 mg/kg, LMWH 750 IU/kg, 1 ml/kg
Experimental: Oral dosing (PO) and/or intracolonic (IC) compositions containing a delivery agent compound and low molecular weight heparin (LMWH) were prepared in 25% aqueous propylene glycol. […] Typically, the delivery agent compound and LMWH (Parnaparin, 91 IU/mg average molecular weight about 5,000, available from Opocrin, Modena, Italy) (typically 90-105 IU/mg, average molecular weight about 5,000) were mixed by vortex as dry powders. This dry mixture was dissolved in 25% v/v aqueous propylene glycol, vortexed, and placed in a sonicator (37° C.) to produce a clear solution. The pH was adjusted to about 7 (6.5-8.5) with 2N aqueous NaOH. The dosing solution was sonicated to produce a clear solution. The final volume was adjusted to 3.0 ml.
as §1
Citrated blood samples were collected by cardiac puncture following the administration of ketamine (88 mg/kg), typically at 0.5, 1.0, 2.0, 3.0 and 4.0 hours after dosing. LMWH absorption was verified by an increase in plasma LMWH measured by the anti-Factor Xa assay CHROMOSTRATE™ Heparin anti-Xa assay (available from Organon Teknika Corporation, Durham, N.C.). […] The peak of these mean plasma LMWH concentrations is reported below in Table 5.

[3] = Daptomycin oral delivery, plasma daptomycin by HPLC; assay type: in vivo, Sprague-Dawley rats; conditions: rats, delivery agent compound dose 200 mg/kg, daptomycin dose 50 mg/kg, volume dose 1 mL/kg
Experimental: Dosing solutions containing a delivery agent compound and daptomycin (Cubist Pharmaceuticals, Cambridge, Mass.) were prepared in 0.9% normal saline. […] This mixture was vortexed and placed in a sonicator (about 37° C.). The pH was adjusted to about 7.0-7.5 with aqueous HCl or NaOH. […] The mixture was vortexed to produce a uniform solution, also using sonication if necessary. The delivery agent compound solution was mixed with daptomycin from a stock solution (200 mg daptomycin/mL in 0.9% normal saline and the pH adjusted, if necessary, to between 6.0-7.0 with NaOH or HCl). The stock solution was stored frozen (−20° C.) wrapped in foil, then thawed and warmed gradually to about 25° C. before using. The delivery agent-daptomycin mixture was vortexed at low speed to produce a uniform solution. The pH was adjusted to about 7.0-7.5 with aqueous NaOH. The solution was then diluted with 0.9% normal saline to the desired volume (usually 2.0 ml) and concentration and stored wrapped in foil before use.
(§2) The typical dosing and sampling protocols were as follows.
Heparinized rat blood samples were collected via the ventral tail artery, typically at 0.25, 0.5, 0.75, 1.0, 2.0, and 4.0 hours after dosing, and stored on ice. Blood samples were then spun (centrifuged) at 11,500 rpm for 4 minutes at 4° C. to obtain the plasma (supernatant), which was stored at −70° C. The plasma daptomycin concentrations were measured by isocratic reversed phase HPLC, keeping samples at 4° C. during analysis. Blank plasma studies show baseline values of zero.
Daptomycin blood concentrations results from the individual animals in each dosage group were averaged for each time point.

[4] = Salmon calcitonin (sCT) oral delivery, serum sCT by EIA; conditions: rats, delivery agent compound dose 150 mg/kg, sCT dose 30 μg/kg
Experimental: Oral dosing (PO) compositions of a delivery agent compound and salmon calcitonin (sCT) in deionized water were prepared as described in Table 2 below. […] Either the sodium salt of the compound was used or the free acid was converted to the sodium salt by stirring the resultant solution and adding one equivalent of sodium hydroxide (1.0 N) and diluting with water. The solution was vortexed, then heated (about 37° C.) and sonicated. The pH was adjusted to about 7 (about 6.5 to 8.5) with NaOH or HCl. 90 μg sCT from a sCT stock solution (2 mg/ml made by adding 10001 pH 4 phosphate buffer to sCT and allowing it to go into solution by sitting for about 10-20 minutes and periodically gently inverting) was added to the solution.
The typical dosing and sampling protocols were as follows. Male Sprague-Dawley rats weighing between 200-250 g were fasted for 24 hours and administered ketamine (44 mg/kg) and chlorpromazine (1.5 mg/kg) 15 minutes prior to dosing and again as needed to maintain anesthesia. A dosing group of five animals was administered one of the dosing solutions. For oral dosing, an 11 cm Rusch 8 French catheter was adapted to a 1 ml syringe with a pipette tip. The syringe was filled with dosing solution by drawing the solution through the catheter, which was then wiped dry. The catheter was placed down the esophagus leaving 1 cm of tubing past the incisors. Solution was administered by pressing the syringe plunger.
Blood samples were collected serially from the tail artery, typically at time=0, 10, 20, 30, 60 and 90 minutes. […] Numbers were adjusted according to baseline values obtained at time=0. The results from the animals in each dosing group were averaged for each time point.

[5] = Interferon oral delivery, serum IFN by immunoassay; assay type: in vivo, Sprague-Dawley rats; conditions: rats, 1 ml/kg
Experimental: Dosing solutions of delivery agent compound and human interferon (IFN) were prepared in deionized water. […] This mixture was vortexed and placed in a sonicator (about 37° C.). The pH was adjusted to about 7.0 to 8.5 with aqueous NaOH. The mixture was vortexed to produce a uniform suspension or solution, also using sonication and heat if necessary.
as §2
Serum IFN concentrations were quantified using Cytoscreen Immunoassay Kit for human IFN-alpha (catalog # KHC4012 from Biosource International, Camarillo, Calif.). Previous studies indicated baseline values of about zero.

[6] = Cromolyn oral delivery, serum cromolyn by HPLC; assay type: in vivo, Sprague-Dawley rats; conditions: rats, delivery agent compound dose 200 mg/kg, cromolyn dose 25 mg/kg, in µg/mL (unit assumed)
Experimental: Dosing solutions containing a delivery agent compound (prepared as in Example 1) and cromolyn, disodium salt (cromolyn)(from Sigma Chemical Co., St. Louis, Mo.) were prepared in deionized water. […] This mixture was vortexed and placed in a sonicator (about 37° C.). The pH was adjusted to about 7-7.5 with aqueous NaOH. […] The mixture was vortexed to produce a uniform solution, also using sonication and heat if necessary. The delivery agent compound solution was mixed with cromolyn from a stock solution (175 mg cromolyn/ml in deionized water, pH adjusted, if necessary, with NaOH or HCl to about 7.0, stock solution stored frozen wrapped in foil, then thawed and heated to about 30° C. before using). The mixture was vortexed to produce a uniform solution, also using sonication and heat if necessary. The pH was adjusted to about 7-8 with aqueous NaOH. The solution was then diluted with water to the desired volume (usually 2.0 ml) and concentration and stored wrapped in foil before use.
as §2
Blood samples were collected via the tail artery, typically at 0.25, 0.5, 1.0 and 1.5 hours after dosing. Serum cromolyn concentrations were measured by HPLC. Samples were prepared as follows: 100 μl serum was combined with 100 μl 3N HCl and 300 μl ethyl acetate in an eppendorf tube. The tube was vortexed for 10 minutes and then centrifuged for 10 minutes at 10,000 rpm. 200 μl ethyl acetate layer was transferred to an eppendorf tube containing 67 μl 0.1 M phosphate buffer. The tube was vortexed for 10 minutes and then centrifuged for 10 minutes at 10,000 rpm. […] Previous studies indicated baseline values of about zero.

[7] = Recombinant human growth hormone (rhGH) oral delivery, serum rhGH by immunoassay; conditions: oral gavage, rats, delivery agent compound 200 mg/kg, rhGH 3 mg/kg
Experimental: Oral gavage (PO) dosing solutions of delivery agent compound and rhGH in phosphate buffer were prepared by mixing. A solution of the delivery agent compound was made either with the sodium salt of the delivery agent compound or by converting the free acid to its sodium salt.
The typical dosing and sampling protocols were as follows. Male Sprague-Dawley rats weighing 200-250 g were fasted for 24 hours and administered ketamine (44 mg/kg) and chlorpromazine (1.5 mg/kg) 15 minutes prior to dosing and again as needed to maintain anesthesia. A dosing group of five animals was administered one of the dosing solutions. An 11 cm Rusch 8 French catheter was adapted to a 1 ml syringe with a pipette tip. The syringe was filled with dosing solution by drawing the solution through the catheter, which was then wiped dry. The catheter was placed down the esophagus leaving 1 cm of tubing past the incisors. The dosing solution was administered by pressing the syringe plunger.
Blood samples were collected serially from the tail artery typically at time=15, 30, 45, 60 and 90 minutes. The five samples from each time period were pooled (except for those samples for which standard deviation (SD) and standard error (SE) are reported). Serum rHGH concentrations were quantified by an rHGH immunoassay test kit (Kit # K1F4015 from Genzyme Corporation Inc., Cambridge, Mass.).

[8] = Insulin oral delivery, serum human insulin by ELISA; conditions: rats
Experimental: Oral dosing (PO) compositions of delivery agent compound and human zinc insulin (minimum 26 IU/mg available from Calbiochem—Novabiochem Corp, La Jolla, Calif.) were prepared in deionized water. […] The pH was adjusted to about 7 to 8.5 with NaOH or HCl. […] The final delivery agent compound dose, insulin dose and dose volume amounts are listed below in Table 8.
as §2
Serum insulin levels were determined with an Insulin ELISA Test Kit (Kit # DSL-10-1600 from Diagnostic Systems Laboratories, Inc., Webster, Tex.), modifying the standard protocol in order to optimize the sensitivity and linear range of the standard curve for the volumes and concentrations of the samples used in the present protocol. […] The five values for each time point were averaged and the results plotted as serum insulin concentration versus time.

[9] = Parathyroid hormone (PTH 1-34) oral/intracolonic delivery, serum PTH by radioimmunoassay; conditions: rats, oral (PO); delivery agent compound dose 100 mg/kg, PTH dose 200 μg/kg, volume dose 1 ml/kg
Experimental: Oral gavage (PO) and/or intracolonic (IC) dosing solutions of delivery agent compound and human parathyroid hormone residues 1-34 (PTH) in deionized water were prepared. A solution of the compound was made either with the sodium salt of the delivery agent compound or by converting the free acid to its sodium salt.
The typical dosing and sampling protocols were as follows. Male Sprague-Dawley rats weighing between 200-250 g were fasted for 24 hours and administered ketamine (44 mg/kg) and chlorpromazine (1.5 mg/kg) 15 minutes prior to dosing and again as needed to maintain anesthesia. A dosing group of five animals was administered one of the dosing solutions. For oral gavage (PO), an 11 cm Rusch 8 French catheter was adapted to a 1 ml syringe with a pipette tip. The syringe was filled with dosing solution by drawing the solution through the catheter, which was then wiped dry. The catheter was placed down the esophagus leaving 1 cm of tubing past the incisors. The dosing solution was administered by pressing the syringe plunger. For intracolonic (IC) dosing, a 7.5 cm Rusch catheter tube (French 8 or 6) was adapted to a syringe with an Eppendorf pipette tip. The syringe was filled with the dosing solution by drawing the solution through the catheter tube. The catheter tube was wiped dry. K-Y jelly was applied to the tip, avoiding contact with the eye of the tube, and the tube was inserted into the colon through the anus until the tube was no longer visible. The dosing solution was injected by pressing the syringe plunger, and the tube was removed.
Previous studies indicated baseline values of about zero. Results from the animals in each group were averaged for each time point.

[10] = Insulin pulmonary delivery, serum insulin by ELISA, ratio to insulin-alone control; assay type: in vivo, Sprague-Dawley rats; conditions: pulmonary, rats; volume 0.4 ml/kg, delivery agent compound 0.03 mg/kg, insulin 0.3 mg/kg (so in the source)
Experimental: Dosing compositions of delivery agent compound and human insulin in water were prepared. Typically, to 1.5 mg of delivery agent compound was added deionized water to bring the volume to 1.0 ml, and the solution was vortexed. […] The pH was adjusted to between about 7.0 to 8.5 with NaOH or HCl. […] The final delivery agent compound dose, insulin dose and volume dose amounts are listed below in Table 9.
The typical dosing and sampling protocols were as follows. […] A control group of five animals was dosed insulin alone. A tracheal instillator for rodents, equipped with light (available from Penn Century, Inc., Pittsburgh, Pa.) was filled with dosing solution and inserted down the throat until the needle went into the trachea (confirmed visually). The dosing solution was administered by pressing the plunger.
Blood samples from each animal were collected serially from the tail artery, typically at 5, 15, 30, 60 and 120 minutes after dosing. […] The ratio of the area under the curve (AUC) for the test group versus that of the control group is reported below. The ratio of the maximum serum insulin concentration (Cmax) for the test group versus that of the control group is also reported below.

[11] = IC (intracolonic), delivery agent compound 50 mg/kg, heparin 25 mg/kg, volume dose 1 ml
[12] = delivery agent compound 200 mg/kg, IFN 1 mg/kg
[13] = delivery agent compound 100 mg/kg, insulin 3 mg/kg, 0.5 ml/kg

## O=C(O)c1ccc(COc2ccccc2O)cc1 [Compound 2]
[1]; [11]
  Mean Peak APTT ± SD: 48.788 ± 32.79 s
[2]
  Mean Peak Plasma LMWH Concentration ± SD: 1.038 ± 0.338 IU/ml
[3]
  Mean plasma Cmax [daptomycin] ± SD: 5070 ± 610 ng/mL
[4]; dose volume 1 (ml), 150 mg/kg
  Mean Peak Serum sCT (pg/ml ± SD) (SE): 628 ± 221 pg/mL and 449 ± 550 pg/mL and 320 ± 348 pg/mL

## O=C(O)CCCCCOc1ccccc1O [Compound 5]
[1]; PO (oral gavage), delivery agent compound 300 mg/kg, heparin 100 mg/kg, volume dose 3 ml
  Mean Peak APTT ± SD: 135.7 ± 17.3 s
[5]; delivery agent compound 50 mg/kg, IFN 0.5 mg/kg
  Mean Peak Serum [IFN] ± SD: 1.54 ± 0.26 ng/mL and 2.1 ± 0.95 ng/mL
[6]; volume dose 1 ml/kg
  Mean Peak serum [cromolyn] ± SD (SE): 0.63 ± 0.47
[3]
  Mean plasma Cmax [daptomycin] ± SD: 7082 ± 3860 ng/mL
[4]; dose volume 1 (ml)
  Mean Peak Serum sCT (pg/ml ± SD) (SE): 349 ± 348 pg/mL

## CC(=O)c1ccccc1OCCCCCC(=O)O [Compound 11]
[1]; [11]
  Mean Peak APTT ± SD: 39.53 ± 8.25 s
[2]
  Mean Peak Plasma LMWH Concentration ± SD: 0.91 ± 0.414 IU/ml
[3]
  Mean plasma Cmax [daptomycin] ± SD: 13270 ± 13430 ng/mL
[4]; dose volume 1 (ml)
  Mean Peak Serum sCT (pg/ml ± SD) (SE): 526 ± 415 pg/mL
[7]; volume dose 1 ml
  Mean Peak Serum [rhGH]: 35.4 ng/mL

## O=C(O)CCCCCOc1ccccc1 [Compound 15]
[5]; [12]
  Mean Peak Serum [IFN] ± SD: 6.0324 ± 2.8 ng/mL
[8]; delivery agent compound 100 mg/kg, insulin 3 mg/kg, 1 ml/kg
  Mean Peak Serum [INS] ± SD: 1332.2 ± 1906.4 μU/ml
[6]; volume dose 1 ml/kg
  Mean Peak serum [cromolyn] ± SD (SE): 0.38 ± 0.15
[3]
  Mean plasma Cmax [daptomycin] ± SD: 9500 ± 5490 ng/mL
[4]; dose volume 2 (ml)
  Mean Peak Serum sCT (pg/ml ± SD) (SE): 116 ± 88 pg/mL

## CNC(=O)c1ccccc1OCCCCCCCC(=O)O [Compound 31]
[1]; [11]
  Mean Peak APTT ± SD: 47 ± 23.1 s
[2]; 50 mg/kg
  Mean Peak Plasma LMWH Concentration ± SD: 0.47 ± 0.287 IU/ml and 0.47 ± 0.332 IU/ml
[8]; [13]
  Mean Peak Serum [INS] ± SD: 21.26 ± 6.22 μU/ml
[9]
  Mean Peak Serum [PTH] (pg/mL) ± SD: 460 ± 194 pg/mL

## CCNC(=O)c1ccccc1OCCCCCCCC(=O)O [Compound 33, 8-(2-(N-ethylbenzamide)oxy)octanoic acid]
[8]; [13]
  Mean Peak Serum [INS] ± SD: 58.13 ± 52.86 μU/ml
[4]; dose volume 1 (ml)
  Mean Peak Serum sCT (pg/ml ± SD) (SE): 96 ± 209 pg/mL
[7]; volume dose 1 ml
  Mean Peak Serum [rhGH]: 10.1 ng/mL and 6.9 ng/mL
[9]
  Mean Peak Serum [PTH] (pg/mL) ± SD: 837 ± 347 pg/mL

## CC(C)NC(=O)c1ccccc1OCCCCCCCC(=O)O [Compound 34]
[4]; dose volume 1 (ml), 150 mg/kg
  Mean Peak Serum sCT (pg/ml ± SD) (SE): 103 ± 72 pg/mL and 137 ± 178 pg/mL
[9]
  Mean Peak Serum [PTH] (pg/mL) ± SD: 538 ± 328 pg/mL

## O=C(O)CCCCCCCOc1cccc(O)c1 [Compound 43]
[5]; [12]
  Mean Peak Serum [IFN] ± SD: 1 ± 2.1 ng/mL and 1.206 ng/mL
[10]
  Mean Ratio of AUC for insulin + compound versus AUC for insulin alone: 1.44
[3]
  AUC (Total AUC(0→∞)) of daptomycin: 4555* μg-min/mL and 2895* μg-min/mL and 2820* μg-min/mL
[4]; dose volume 1 (ml)
  Mean Peak Serum sCT (pg/ml ± SD) (SE): 50 ± 71 pg/mL

## O=C(O)CCCCCCCOc1ccc(O)cc1 [Compound 47, (4-hydroxyphenyl)-8-oxyoctanoic acid]
[1]; [11]
  Mean Peak APTT ± SD: 370.3 ± 97.8 s
[5]; [12]
  Mean Peak Serum [IFN] ± SD: 1.1 ± 0.85 ng/mL
[10]
  Mean Ratio of AUC for insulin + compound versus AUC for insulin alone: 0.63
[6]; volume dose 1 ml/kg
  Mean Peak serum [cromolyn] ± SD (SE): 0.56 ± 0.39
[6]; volume dose 2 ml/kg
  Mean Peak serum [cromolyn] ± SD (SE): 0.55 ± 0.12
[4]; dose volume 1 (ml)
  Mean Peak Serum sCT (pg/ml ± SD) (SE): 62 ± 99 pg/mL
[7]; volume dose 2 ml
  Mean Peak Serum [rhGH]: 9.9 ± 22.1 ng/mL

## O=Cc1ccccc1OCCCCCCCC(=O)O [Compound 61]
[8]; delivery agent compound 200 mg/kg, insulin 0.5 mg/kg, 1 ml/kg
  Mean Peak Serum [INS] ± SD: 58.99 ± 27.15 μU/ml
[6]; volume dose 1 ml/kg
  Mean Peak serum [cromolyn] ± SD (SE): 0.54 ± 0.39 and 0.57 ± 0.36
[6]; volume dose 2 ml/kg
  Mean Peak serum [cromolyn] ± SD (SE): 0.39 ± 0.21
